Source: paper PMC7486443, “Generation of Phenothiazine with Potent Anti-TLK1 Activity for Prostate Cancer Therapy” (iScience, 2020)

Legend:
Assay in all cases: biochemical
Set-up in all cases: DiscoverX KINOMEscan scanMAX competition binding panel, single concentration, percent of control; remaining binding: dose or concentration left out as unconfirmed
Conditions in all cases: KINOMEscan binding, percent of control; read-out: Table S4_SCANMAX REPORT - related to Fig. 1 / Percent Control
[1] = target: T1, ABL1(M351T)-phosphorylated (Homo sapiens, UniProt P00519, M351T)
T1 construct: phosphorylated

ASK2 = target: T2, ASK2 (Homo sapiens, UniProt O95382)
T2 construct: gene MAP3K6

BIKE = target: T3, BIKE (Homo sapiens, UniProt Q9NSY1)
T3 construct: gene BMP2K

CAMKK1 = CAMKK1 (Homo sapiens, UniProt Q8N5S9)
CSK = CSK (Homo sapiens, UniProt P41240)
EGFR(T790M) = EGFR(T790M) (Homo sapiens, UniProt P00533, T790M)
ERK5 = target: T4, ERK5 (Homo sapiens, UniProt Q13164)
T4 construct: gene MAPK7

FGR = FGR (Homo sapiens, UniProt P09769)
KIT(V559D,V654A) = KIT(V559D,V654A) (Homo sapiens, UniProt P10721, V559D/V654A)
LRRK2(G2019S) = LRRK2(G2019S) (Homo sapiens, UniProt Q5S007, G2019S)
MST4 = target: T5, MST4 (Homo sapiens, UniProt Q9P289)
T5 construct: gene STK26

MUSK = MUSK (Homo sapiens, UniProt O15146)
NDR1 = target: T6, NDR1 (Homo sapiens, UniProt Q15208)
T6 construct: gene STK38

PAK2 = PAK2 (Homo sapiens, UniProt Q13177)
PDPK1 = PDPK1 (Homo sapiens, UniProt O15530)
PKAC-beta = target: T7, PKAC-beta (Homo sapiens, UniProt P22694)
T7 construct: gene PRKACB

ROCK1 = ROCK1 (Homo sapiens, UniProt Q13464)
YSK1 = target: T8, YSK1 (Homo sapiens, UniProt O00506)
T8 construct: gene STK25
T8 sequence (O00506 whole entry): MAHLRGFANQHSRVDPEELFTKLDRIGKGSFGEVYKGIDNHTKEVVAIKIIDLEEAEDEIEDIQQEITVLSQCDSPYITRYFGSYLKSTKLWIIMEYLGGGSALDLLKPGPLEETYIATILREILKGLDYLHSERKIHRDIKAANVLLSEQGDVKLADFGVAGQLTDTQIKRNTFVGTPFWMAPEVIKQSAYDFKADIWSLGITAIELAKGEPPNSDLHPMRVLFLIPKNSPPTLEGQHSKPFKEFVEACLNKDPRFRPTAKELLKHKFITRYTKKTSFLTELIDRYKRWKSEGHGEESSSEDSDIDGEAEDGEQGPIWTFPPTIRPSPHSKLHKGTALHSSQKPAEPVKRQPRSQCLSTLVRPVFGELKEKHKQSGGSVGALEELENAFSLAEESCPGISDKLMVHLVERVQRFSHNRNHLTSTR

Chain of PAK2 (Q13177 whole entry): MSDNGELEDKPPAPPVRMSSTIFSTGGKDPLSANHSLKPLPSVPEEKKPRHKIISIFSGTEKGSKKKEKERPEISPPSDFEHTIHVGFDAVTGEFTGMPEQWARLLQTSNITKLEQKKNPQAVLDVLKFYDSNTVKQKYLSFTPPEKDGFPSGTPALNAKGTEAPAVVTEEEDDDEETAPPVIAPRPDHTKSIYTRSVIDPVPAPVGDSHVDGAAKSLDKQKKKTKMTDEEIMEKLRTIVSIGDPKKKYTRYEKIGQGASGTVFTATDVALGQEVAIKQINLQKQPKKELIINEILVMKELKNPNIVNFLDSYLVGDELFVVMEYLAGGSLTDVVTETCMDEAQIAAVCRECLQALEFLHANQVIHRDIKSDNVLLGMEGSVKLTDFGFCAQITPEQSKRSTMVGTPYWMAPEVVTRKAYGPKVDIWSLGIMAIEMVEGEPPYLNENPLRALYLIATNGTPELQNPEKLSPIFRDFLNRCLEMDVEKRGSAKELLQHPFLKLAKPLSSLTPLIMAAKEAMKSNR
T6 sequence (Q15208 whole entry): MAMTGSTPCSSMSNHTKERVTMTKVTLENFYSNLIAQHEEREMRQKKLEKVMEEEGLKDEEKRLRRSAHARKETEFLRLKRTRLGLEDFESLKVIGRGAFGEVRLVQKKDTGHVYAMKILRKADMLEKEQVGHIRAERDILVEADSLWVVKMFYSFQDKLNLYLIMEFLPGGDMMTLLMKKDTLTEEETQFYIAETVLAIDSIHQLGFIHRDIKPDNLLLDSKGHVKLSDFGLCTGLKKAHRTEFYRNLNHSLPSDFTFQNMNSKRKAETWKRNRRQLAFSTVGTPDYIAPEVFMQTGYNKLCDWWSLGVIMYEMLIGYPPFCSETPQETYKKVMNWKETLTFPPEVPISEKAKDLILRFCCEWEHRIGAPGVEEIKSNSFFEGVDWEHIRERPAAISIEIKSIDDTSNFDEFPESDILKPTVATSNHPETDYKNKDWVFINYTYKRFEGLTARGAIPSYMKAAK
Chain of MUSK (O15146 whole entry): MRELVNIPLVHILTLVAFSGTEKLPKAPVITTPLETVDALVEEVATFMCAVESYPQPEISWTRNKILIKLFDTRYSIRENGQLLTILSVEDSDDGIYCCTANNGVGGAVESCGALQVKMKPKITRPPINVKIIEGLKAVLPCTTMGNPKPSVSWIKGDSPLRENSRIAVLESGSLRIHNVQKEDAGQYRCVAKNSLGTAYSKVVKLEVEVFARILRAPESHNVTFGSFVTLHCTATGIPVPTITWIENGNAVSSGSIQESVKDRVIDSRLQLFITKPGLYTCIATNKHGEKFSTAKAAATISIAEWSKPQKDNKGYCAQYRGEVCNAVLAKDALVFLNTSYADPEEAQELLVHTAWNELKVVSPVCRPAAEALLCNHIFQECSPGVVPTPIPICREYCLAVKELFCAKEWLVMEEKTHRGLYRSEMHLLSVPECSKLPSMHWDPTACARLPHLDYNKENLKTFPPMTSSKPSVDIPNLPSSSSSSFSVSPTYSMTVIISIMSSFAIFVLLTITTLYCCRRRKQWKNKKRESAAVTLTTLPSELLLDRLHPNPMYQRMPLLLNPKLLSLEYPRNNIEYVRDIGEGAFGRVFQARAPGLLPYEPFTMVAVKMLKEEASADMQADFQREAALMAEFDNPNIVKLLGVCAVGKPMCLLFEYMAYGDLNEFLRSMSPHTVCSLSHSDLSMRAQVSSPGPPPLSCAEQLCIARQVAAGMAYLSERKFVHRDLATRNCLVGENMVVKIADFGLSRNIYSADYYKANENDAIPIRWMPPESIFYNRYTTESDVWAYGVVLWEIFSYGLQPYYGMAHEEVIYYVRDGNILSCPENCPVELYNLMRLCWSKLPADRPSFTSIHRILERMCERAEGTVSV
T3 sequence (Q9NSY1 whole entry): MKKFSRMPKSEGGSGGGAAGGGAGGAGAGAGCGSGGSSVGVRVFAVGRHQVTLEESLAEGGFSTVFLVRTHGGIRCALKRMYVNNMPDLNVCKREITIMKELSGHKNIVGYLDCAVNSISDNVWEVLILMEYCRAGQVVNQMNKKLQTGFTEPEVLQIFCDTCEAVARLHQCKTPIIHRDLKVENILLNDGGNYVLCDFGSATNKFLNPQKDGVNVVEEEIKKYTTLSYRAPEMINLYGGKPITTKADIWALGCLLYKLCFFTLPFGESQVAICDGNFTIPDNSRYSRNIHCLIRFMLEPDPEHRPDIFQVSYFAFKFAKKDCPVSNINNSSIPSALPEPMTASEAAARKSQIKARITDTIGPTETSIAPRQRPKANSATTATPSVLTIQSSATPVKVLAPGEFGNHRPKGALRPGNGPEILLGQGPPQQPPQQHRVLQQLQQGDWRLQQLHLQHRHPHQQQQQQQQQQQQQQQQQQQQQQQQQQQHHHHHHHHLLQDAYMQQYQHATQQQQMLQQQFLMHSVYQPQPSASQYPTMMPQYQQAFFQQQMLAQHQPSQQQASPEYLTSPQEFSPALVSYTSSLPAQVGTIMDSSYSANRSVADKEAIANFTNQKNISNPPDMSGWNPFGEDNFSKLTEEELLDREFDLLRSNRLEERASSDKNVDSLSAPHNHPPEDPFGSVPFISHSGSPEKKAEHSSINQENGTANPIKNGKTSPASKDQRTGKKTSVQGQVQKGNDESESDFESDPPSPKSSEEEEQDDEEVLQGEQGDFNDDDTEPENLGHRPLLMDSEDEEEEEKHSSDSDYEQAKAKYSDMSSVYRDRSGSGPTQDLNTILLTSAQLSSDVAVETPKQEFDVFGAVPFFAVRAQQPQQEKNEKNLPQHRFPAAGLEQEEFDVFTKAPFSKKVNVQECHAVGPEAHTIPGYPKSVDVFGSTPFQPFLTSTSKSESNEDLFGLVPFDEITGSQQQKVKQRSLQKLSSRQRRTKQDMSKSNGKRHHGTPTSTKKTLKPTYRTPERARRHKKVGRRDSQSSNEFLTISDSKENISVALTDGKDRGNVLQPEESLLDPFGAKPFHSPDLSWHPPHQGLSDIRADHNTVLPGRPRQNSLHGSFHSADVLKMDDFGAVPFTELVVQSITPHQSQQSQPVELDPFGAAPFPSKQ
Chain of PDPK1 (O15530 whole entry): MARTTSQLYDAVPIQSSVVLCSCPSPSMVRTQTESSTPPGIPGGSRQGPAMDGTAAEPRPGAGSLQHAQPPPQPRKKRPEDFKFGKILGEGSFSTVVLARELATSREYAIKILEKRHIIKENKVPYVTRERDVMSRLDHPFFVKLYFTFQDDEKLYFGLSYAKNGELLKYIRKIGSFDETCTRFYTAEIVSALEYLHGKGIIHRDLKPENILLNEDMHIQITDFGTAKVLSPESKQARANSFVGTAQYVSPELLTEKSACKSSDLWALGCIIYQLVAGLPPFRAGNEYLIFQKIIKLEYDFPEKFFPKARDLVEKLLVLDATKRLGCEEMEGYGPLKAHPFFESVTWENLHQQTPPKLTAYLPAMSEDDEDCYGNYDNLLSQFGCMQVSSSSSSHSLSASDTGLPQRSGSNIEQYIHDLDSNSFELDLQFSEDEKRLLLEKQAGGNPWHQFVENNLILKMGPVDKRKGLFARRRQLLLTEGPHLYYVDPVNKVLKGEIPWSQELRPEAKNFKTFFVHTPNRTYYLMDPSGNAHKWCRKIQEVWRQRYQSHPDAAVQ
T5 sequence (Q9P289 whole entry): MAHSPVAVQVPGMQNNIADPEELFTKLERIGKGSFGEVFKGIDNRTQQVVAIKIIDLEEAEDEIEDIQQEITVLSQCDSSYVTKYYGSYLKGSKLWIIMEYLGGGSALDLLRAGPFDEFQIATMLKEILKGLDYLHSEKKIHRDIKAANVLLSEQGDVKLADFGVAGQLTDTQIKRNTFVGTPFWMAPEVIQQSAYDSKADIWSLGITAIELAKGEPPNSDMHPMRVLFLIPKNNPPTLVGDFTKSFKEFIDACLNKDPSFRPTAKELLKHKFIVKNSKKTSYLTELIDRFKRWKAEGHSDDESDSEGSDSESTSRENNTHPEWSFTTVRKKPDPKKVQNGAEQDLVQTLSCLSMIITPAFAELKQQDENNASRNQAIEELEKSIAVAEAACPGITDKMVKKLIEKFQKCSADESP
Chain of FGR (P09769 whole entry): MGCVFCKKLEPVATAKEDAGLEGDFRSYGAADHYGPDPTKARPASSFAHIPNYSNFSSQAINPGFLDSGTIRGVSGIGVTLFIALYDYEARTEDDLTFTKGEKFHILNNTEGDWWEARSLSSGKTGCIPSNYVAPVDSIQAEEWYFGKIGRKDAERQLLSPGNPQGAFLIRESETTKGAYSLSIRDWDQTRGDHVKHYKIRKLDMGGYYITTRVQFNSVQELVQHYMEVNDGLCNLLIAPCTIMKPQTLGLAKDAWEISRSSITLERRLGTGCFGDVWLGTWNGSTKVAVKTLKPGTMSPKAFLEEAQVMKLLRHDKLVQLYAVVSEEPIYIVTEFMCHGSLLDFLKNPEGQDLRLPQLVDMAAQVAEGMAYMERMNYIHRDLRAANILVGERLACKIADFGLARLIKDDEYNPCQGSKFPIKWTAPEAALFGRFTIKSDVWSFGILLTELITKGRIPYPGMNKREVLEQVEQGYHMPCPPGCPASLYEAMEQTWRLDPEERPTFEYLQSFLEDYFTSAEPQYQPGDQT

`c1ccc2c(c1)Sc1ccccc1N2CCN1CCOCC1` [J54] showed a remaining binding [1] of 100%, a remaining binding (ASK2) of 100% and a remaining binding (BIKE) of 52%. The remaining binding (CAMKK1) was 100%, the remaining binding (CSK) was 100% and the remaining binding (EGFR(T790M)) was 96%. For the same compound, the remaining binding (ERK5) was 100%, the remaining binding (FGR) was 100% and the remaining binding (KIT(V559D,V654A)) was 99%. It also gave a remaining binding (LRRK2(G2019S)) of 38%, a remaining binding (MST4) of 100% and a remaining binding (MUSK) of 100%. It also gave a remaining binding (NDR1) of 100%, a remaining binding (PAK2) of 76% and a remaining binding (PDPK1) of 92%. It also gave a remaining binding (PKAC-beta) of 86%, a remaining binding (ROCK1) of 100% and a remaining binding (YSK1) of 97%.
